Measured values from article PMC5472792, “Bub1 positions Mad1 close to KNL1 MELT repeats to promote checkpoint signalling” (Nature Communications, 2017).
Changes are numbered by the printed parent chain. Square brackets hold non-standard residues; d marks the D form. Peptide text beside a SMILES is read from it. * marks the point of attachment. Biotin = O=C1N[C@H]2[C@H](CS[C@H]2CCCCC(=O)*)N1; pT = C[C@@H](OP(=O)(O)O)[C@H](N)C(=O)O; Nle = CCCC[C@H](N)C(=O)O

Assays:
[1] = molecular target: T1, Mad1 597–718 (Homo sapiens, UniProt Q9Y6D9); experiment: SPR, binding of CD1 peptides to Mad1 597–718 (steady-state affinity); details: ratio of Kd, SPR, Mad1 597–718
T1 construct: His (N); Strep (N); made in house; host or cells: E. coli BL21(DE3)
T1 sequence (Q9Y6D9 597-718): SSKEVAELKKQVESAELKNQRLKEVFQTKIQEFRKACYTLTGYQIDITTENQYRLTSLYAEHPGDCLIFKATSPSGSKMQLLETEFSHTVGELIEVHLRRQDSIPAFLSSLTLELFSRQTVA
From the text: (§1) To further investigate a possible direct interaction between Mad1 and CD1, we used surface plasmon resonance technology. […] To achieve a more efficient synthesis of CD1 peptides and in particularly of the phosphorylated peptides we used norleucine (Nle) instead of methionine (Met) but we cannot exclude that Mad1 will have a different affinity for peptides containing methionine. […] Given that Ser459 and Thr461 phosphorylation was critical for Bub1 functionality in vivo we tested if they affected Mad1 597–718 binding. […] As the Mad1 RLK motif is required for binding Bub1 in budding yeast in vivo[39], we tested whether this motif was required for direct binding to CD1 phosphorylated on Thr461. […] We furthermore analysed the binding of Mad1 597–718 to CD1 peptides harboring the Ile471Asp and […] (residues 474–476) mutations with Thr461 being phosphorylated.
Figure 4 Direct binding of Mad1 to CD1 peptide. (a) SPR steady-state responses for control, WT, pS459, pT461, pS459/pT461, I471D, MFQ/RKK and control Bub1 CD1 peptides to purified Mad1 597–718 protein. The biotinylated peptides were captured on a streptavidin-coated CM5 chip and increasing concentrations of Mad1 were subsequently added for binding assessment. Empty symbols represent experimental data points from two technical replicates using the same chip. An additional independent experiment with two replicates has been performed giving in all cases consistent results. The equilibrium dissociation constants, KD, were calculated using a steady-state affinity model and the lines represent the best fit to the model. […] (b) Similar to a, SPR steady-state responses for pT461 peptide with purified Mad1 597–718 or Mad1 597–718 RLK/AAA or the Mad1 485–718/Mad2 complex. (c) Sequence and summary of the affinity of CD1 peptides for Mad1 597–718 as determined by SPR.
Bub1 peptides were purchased from Biosyntan Gmbh (Germany). The purity obtained in the synthesis was 95–98% as determined by high-performance liquid chromatography (HPLC) and the identity of the peptides was confirmed by mass spectrometry. SPR experiments were performed on a Biacore T200 (GE Healthcare) at 25 °C. Streptavidin (ThermoFisher Scientific) at 0.05 mg ml^−1 in 10 mM sodium acetate, pH 4.5, was directly immobilized on a CM5 sensor chip (GE Healthcare) by standard amine coupling chemistry with N-hydroxysuccinimide and N-ethly-N′-(3-dimethlyaminopropyl)carbodiimide up to an immobilization level of approximately 2000 RU. Unreacted sites were quenched with ethanolamine HCl. Subsequently, N-terminal biotinylated Bub1 peptides (at 10 nM in HBS-EP+ buffer and flow rate 5 μl min^−1) were captured at ∼50 RU, respectively, in channels 2, 3 and 4 of the streptavidin coated chip, leaving channel 1 free for reference. An identical approach was used to prepare a second CM5 chip with the negative controls. In this case, a N-terminal biotinylated 5A mutant, a non-related phosphorylated peptide and the Bub1 pT461 peptide were captured, respectively, in channels 2, 3 and 4. HBS-EP+ (10 mM Hepes, pH 7.4, 150 mM NaCl, 3 mM EDTA, 0.05% (v/v) Surfactant P20) was used as running buffer for both streptavidin immobilization and peptide capture. […] Sensorgrams were analysed after double referencing. […]

[2] = molecular target: T2, Mad1 597–718 RLK/AAA (Homo sapiens, UniProt Q9Y6D9, K619A/L618A/R617A); experiment: SPR, binding of CD1 peptide to Mad1 597–718 RLK/AAA; details: Mad1 597–718 RLK/AAA injected up to 250 μM, 25 °C
T2 construct: His; Strep; made in house; host or cells: E. coli BL21(DE3) (stated for the wild-type construct)
T2 sequence (Q9Y6D9 597-718 R617A/L618A/K619A limits assumed): T1 sequence (Q9Y6D9 597-718) with R21A, L22A, K23A
From the text: as §1
Figure 4 Direct binding of Mad1 to CD1 peptide. […] The equilibrium dissociation constants, KD, were calculated using a steady-state affinity model and the lines represent the best fit to the model. […] (c) Sequence and summary of the affinity of CD1 peptides for Mad1 597–718 as determined by SPR.
Bub1 peptides were purchased from Biosyntan Gmbh (Germany). The purity obtained in the synthesis was 95–98% as determined by high-performance liquid chromatography (HPLC) and the identity of the peptides was confirmed by mass spectrometry. […]

What does the source list for `CCCC[C@H](NC(=O)[C@H](CC(N)=O)NC(=O)[C@H](CCCC)NC(=O)[C@@H](NC(=O)[C@H](Cc1ccccc1)NC(=O)CNC(=O)[C@H](CC(C)C)NC(=O)[C@H](C)NC(=O)[C@H](CCC(=O)O)NC(=O)[C@H](CCCCN)NC(=O)[C@@H](NC(=O)[C@H](Cc1c[nH]cn1)NC(=O)[C@@H](NC(=O)[C@@H](NC(=O)[C@@H]1CCCN1C(=O)[C@H](CO)NC(=O)[C@@H]1CCCN1C(=O)[C@H](CCC(N)=O)NC(=O)[C@@H](NC(=O)[C@H](CCCCN)NC(=O)[C@H](CO)NC(=O)[C@@H]1CCCN1C(=O)[C@@H](NC(=O)[C@H](C)NC(=O)[C@H](CCC(N)=O)NC(=O)[C@@H](NC(=O)CCCC[C@@H]1SC[C@@H]2NC(=O)N[C@@H]21)C(C)C)[C@@H](C)O)C(C)C)[C@@H](C)OP(=O)(O)O)C(C)C)[C@@H](C)O)[C@@H](C)CC)C(=O)N[C@@H](Cc1ccccc1)C(=O)N[C@@H](CCC(N)=O)C(=O)N[C@@H](C)C(=O)N1CCC[C@H]1C(=O)N[C@H](C(=O)N[C@@H](CC(C)C)C(=O)N[C@@H](Cc1c[nH]c2ccccc12)C(=O)O)[C@@H](C)O` [CD1 pT461] (Biotin-VQATPSKVQPSP[pT]VHTKEALGFI[Nle]N[Nle]FQAPTLW-OH; C-terminus assumed)?
stronger binding to Mad1 than unphosphorylated CD1 peptide [1]: 10 fold; binding [2]: no binding
